Assay results: ChEMBL document CHEMBL3880381, “Selective inhibitors of aggrecanase in osteoarthritis treatment” (2001)

Legend:
Interstitial collagenase = biological target: T1, Interstitial collagenase (Homo sapiens, UniProt P03956); experiment: Inhibition of trypsin-activated recombinant human collagenase 1 preincubated with protein followed by addition of DNP-Pro-Cha-Gly-Cys(Me)-His-Ala-Lys(NMA)-NH2 as substrate measured after 20 mins by fluorescence analysis
T1 sequence (P03956 whole entry): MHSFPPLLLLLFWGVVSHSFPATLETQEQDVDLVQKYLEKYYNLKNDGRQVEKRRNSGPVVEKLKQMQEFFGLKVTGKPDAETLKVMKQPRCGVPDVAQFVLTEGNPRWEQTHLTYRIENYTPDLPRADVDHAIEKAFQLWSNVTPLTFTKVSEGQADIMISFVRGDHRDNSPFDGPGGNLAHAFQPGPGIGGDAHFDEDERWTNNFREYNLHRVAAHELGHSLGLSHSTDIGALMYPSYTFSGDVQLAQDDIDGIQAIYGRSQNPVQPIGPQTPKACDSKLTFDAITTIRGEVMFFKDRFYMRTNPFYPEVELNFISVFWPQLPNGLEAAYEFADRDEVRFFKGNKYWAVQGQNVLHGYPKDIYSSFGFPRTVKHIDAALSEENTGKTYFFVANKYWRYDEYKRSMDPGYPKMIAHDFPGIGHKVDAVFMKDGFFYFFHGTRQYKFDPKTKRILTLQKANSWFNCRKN

Collagenase 3 = Collagenase 3 (Homo sapiens, UniProt P45452); experiment: Inhibition of APMA-activated recombinant human collagenase 3 preincubated with protein followed by addition of DNP-Pro-Cha-Gly-Cys(Me)-His-Ala-Lys(NMA)-NH2 as substrate measured every 5 mins for 1 hr by fluorescence analysis
Aggrecanase = biological target: T2, Aggrecanase (Sus scrofa, UniProt F1S1A7+F1SHP0); experiment: Inhibition of aggrecanase in primary porcine chondrocytes assessed as inhibition of 35S-proteoglycan release measured after 9 to 12 hrs by liquid scintillation counting method; format: cell-based
T2 sequence (F1S1A7 whole entry): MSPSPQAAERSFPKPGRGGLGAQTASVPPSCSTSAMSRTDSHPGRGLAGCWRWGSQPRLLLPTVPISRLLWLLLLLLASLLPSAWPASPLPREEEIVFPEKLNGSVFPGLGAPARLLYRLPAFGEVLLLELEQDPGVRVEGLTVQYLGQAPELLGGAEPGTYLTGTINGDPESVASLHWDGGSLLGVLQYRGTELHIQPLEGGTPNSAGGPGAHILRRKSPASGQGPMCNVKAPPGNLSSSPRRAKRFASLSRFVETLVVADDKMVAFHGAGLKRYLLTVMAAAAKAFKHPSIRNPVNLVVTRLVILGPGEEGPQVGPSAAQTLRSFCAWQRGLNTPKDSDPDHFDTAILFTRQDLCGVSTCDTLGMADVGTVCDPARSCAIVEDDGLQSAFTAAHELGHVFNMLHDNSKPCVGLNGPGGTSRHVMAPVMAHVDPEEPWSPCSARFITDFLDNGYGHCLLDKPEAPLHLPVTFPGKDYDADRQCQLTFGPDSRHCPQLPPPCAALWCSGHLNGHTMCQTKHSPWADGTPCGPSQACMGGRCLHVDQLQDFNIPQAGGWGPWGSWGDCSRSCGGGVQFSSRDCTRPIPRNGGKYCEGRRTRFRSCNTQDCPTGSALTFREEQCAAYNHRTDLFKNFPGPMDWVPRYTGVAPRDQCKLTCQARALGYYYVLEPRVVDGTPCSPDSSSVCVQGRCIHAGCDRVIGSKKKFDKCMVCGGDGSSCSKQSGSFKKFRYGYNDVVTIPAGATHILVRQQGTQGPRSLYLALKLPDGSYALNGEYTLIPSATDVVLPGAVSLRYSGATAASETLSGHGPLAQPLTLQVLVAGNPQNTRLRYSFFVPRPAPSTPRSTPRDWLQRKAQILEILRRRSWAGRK
T2 sequence (F1SHP0 whole entry): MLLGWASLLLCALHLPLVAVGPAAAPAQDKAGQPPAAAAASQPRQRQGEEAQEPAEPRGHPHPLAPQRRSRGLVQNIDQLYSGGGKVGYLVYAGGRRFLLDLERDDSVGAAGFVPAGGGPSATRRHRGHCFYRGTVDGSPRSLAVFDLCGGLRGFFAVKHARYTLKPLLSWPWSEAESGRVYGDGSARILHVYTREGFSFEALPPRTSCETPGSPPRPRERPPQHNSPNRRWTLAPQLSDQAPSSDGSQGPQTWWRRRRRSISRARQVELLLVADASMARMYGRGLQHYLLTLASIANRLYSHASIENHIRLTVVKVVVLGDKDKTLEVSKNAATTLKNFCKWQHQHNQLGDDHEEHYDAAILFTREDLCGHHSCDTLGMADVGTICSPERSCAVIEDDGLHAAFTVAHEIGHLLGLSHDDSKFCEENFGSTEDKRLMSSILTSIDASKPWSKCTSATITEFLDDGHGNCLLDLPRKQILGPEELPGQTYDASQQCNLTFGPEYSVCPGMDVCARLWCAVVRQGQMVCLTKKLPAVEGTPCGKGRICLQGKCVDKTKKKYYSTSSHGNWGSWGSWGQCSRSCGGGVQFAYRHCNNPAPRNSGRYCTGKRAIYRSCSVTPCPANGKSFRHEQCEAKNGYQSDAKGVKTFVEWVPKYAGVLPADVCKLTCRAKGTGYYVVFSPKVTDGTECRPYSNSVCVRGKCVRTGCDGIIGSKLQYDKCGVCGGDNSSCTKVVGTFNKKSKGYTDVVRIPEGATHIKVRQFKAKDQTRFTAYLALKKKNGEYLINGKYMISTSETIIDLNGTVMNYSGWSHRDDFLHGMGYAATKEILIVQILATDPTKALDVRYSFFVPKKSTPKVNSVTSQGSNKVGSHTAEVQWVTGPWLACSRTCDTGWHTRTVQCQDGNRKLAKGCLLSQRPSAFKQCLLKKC

[1] = biological target: Disintegrin and metalloproteinase domain-containing protein 17 (Homo sapiens, UniProt P78536); experiment: Inhibition of TACE in human mononuclear cells assessed as inhibition of LPS-induced TNF-alpha production measured after 4 hrs in presence of LPS by ELISA; format: cell-based
Chain of Disintegrin and metalloproteinase domain-containing protein 17 (P78536 whole entry, the tested form may be a part): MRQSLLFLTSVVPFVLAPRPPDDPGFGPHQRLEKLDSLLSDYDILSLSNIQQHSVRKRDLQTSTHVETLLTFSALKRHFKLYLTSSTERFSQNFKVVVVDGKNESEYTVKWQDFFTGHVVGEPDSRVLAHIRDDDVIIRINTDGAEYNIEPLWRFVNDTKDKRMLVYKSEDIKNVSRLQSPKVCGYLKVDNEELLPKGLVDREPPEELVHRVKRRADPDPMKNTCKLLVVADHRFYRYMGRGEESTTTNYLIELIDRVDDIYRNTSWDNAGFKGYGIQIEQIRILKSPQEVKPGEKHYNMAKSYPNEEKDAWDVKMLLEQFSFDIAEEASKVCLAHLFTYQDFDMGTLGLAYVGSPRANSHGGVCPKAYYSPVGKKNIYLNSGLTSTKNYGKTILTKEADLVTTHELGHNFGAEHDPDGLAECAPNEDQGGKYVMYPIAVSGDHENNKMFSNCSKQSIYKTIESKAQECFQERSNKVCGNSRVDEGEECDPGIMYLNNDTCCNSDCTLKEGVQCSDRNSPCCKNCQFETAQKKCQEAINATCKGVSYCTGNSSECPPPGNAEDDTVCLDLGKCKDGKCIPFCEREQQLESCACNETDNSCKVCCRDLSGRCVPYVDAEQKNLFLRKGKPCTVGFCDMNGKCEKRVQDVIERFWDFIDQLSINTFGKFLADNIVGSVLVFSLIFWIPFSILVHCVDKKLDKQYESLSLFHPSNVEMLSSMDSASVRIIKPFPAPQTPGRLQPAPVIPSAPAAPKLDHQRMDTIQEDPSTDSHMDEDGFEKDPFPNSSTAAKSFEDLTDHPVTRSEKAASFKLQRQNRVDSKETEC

Row | IC50 (Interstitial collagenase) [nM] | IC50 (Collagenase 3) [nM] | IC50 (Aggrecanase) [nM] | IC50 [1] [nM] | Compound
1 | 200 to 1000 | < 10 | < 10 | 20000 to 40000 | CC1(C)C[C@@H](O)CN(S(=O)(=O)c2ccc(OCc3ccc(Cl)cc3Cl)cc2)[C@H]1C(=O)NO
2 | – | < 10 | < 10 | < 10000 | C[C@@]1(O)CCCN(S(=O)(=O)c2ccc(OCc3ccccc3Cl)cc2)[C@H]1C(=O)NO
3 | – | < 10 | 10 to 20 | < 10000 | Cc1ccc(F)cc1COc1ccc(S(=O)(=O)N2CCC[C@@](C)(O)[C@@H]2C(=O)NO)cc1
4 | 200 to 1000 | < 10 | < 10 | 10000 to 20000 | C[C@@]1(O)CCCN(S(=O)(=O)c2ccc(OCc3ccc(F)cc3Cl)cc2)[C@H]1C(=O)NO
5 | > 1000 | < 10 | 10 to 20 | < 10000 | Cc1c(F)cccc1COc1ccc(S(=O)(=O)N2CCC[C@@](C)(O)[C@@H]2C(=O)NO)cc1
6 | – | < 10 | < 10 | < 10000 | Cc1cc(F)ccc1COc1ccc(S(=O)(=O)N2CCC[C@@](C)(O)[C@@H]2C(=O)NO)cc1
7 | 200 to 1000 | < 10 | 10 to 20 | < 10000 | CC1(C)C[C@@H](O)CN(S(=O)(=O)c2ccc(OCc3ccccc3Br)cc2)[C@H]1C(=O)NO
8 | – | – | – | 3000 | NS(=O)(=O)c1ccc(CCNC(=O)[C@H](CC2CCCCC2)NC(=O)[C@H](CCCc2ccccc2)CC(=O)NO)cc1
9 | > 1000 | 20 to 200 | < 10 | < 10000 | CCc1ccccc1COc1ccc(S(=O)(=O)N2CCN(C(=O)NC)[C@@H](C)[C@@H]2C(=O)NO)cc1
10 | 200 to 1000 | < 10 | < 10 | 10000 to 20000 | C[C@@]1(O)CCCN(S(=O)(=O)c2ccc(OCc3ccc(Cl)cc3Cl)cc2)[C@H]1C(=O)NO
11 | 200 to 1000 | < 10 | 10 to 20 | 10000 to 20000 | C[C@@]1(O)CCCN(S(=O)(=O)c2ccc(OCc3ccc(F)cc3F)cc2)[C@H]1C(=O)NO
12 | > 1000 | 20 to 200 | 10 to 20 | 10000 to 20000 | Cc1ccc(Cl)cc1COc1ccc(S(=O)(=O)N2C[C@H](O)CC(C)(C)[C@@H]2C(=O)NO)cc1
13 | – | 1 | – | – | CNC(=O)[C@H](Cc1ccc(OC)cc1)NC(=O)[C@@H](CC(=O)NO)CC(C)C

More lines, now with the values behind:

Row | Compound | IC50 (Interstitial collagenase) [nM] | IC50 (Collagenase 3) [nM] | IC50 (Aggrecanase) [nM] | IC50 [1] [nM]
14 | C[C@@]1(O)CCCN(S(=O)(=O)c2ccc(OCc3ccccc3F)cc2)[C@H]1C(=O)NO | 20 to 200 | – | 10 to 20 | 20000 to 40000
15 | Cc1ccccc1COc1ccc(S(=O)(=O)N2CCC[C@@](C)(O)[C@@H]2C(=O)NO)cc1 | 200 to 1000 | < 10 | < 10 | < 10000
16 | Cc1c(F)cccc1COc1ccc(S(=O)(=O)N2C[C@H](O)CC(C)(C)[C@@H]2C(=O)NO)cc1 | 200 to 1000 | < 10 | < 10 | < 10000
17 | Cc1cc(F)ccc1COc1ccc(S(=O)(=O)N2C[C@H](O)CC(C)(C)[C@@H]2C(=O)NO)cc1 | 200 to 1000 | < 10 | < 10 | < 10000
18 | CC1(C)C[C@@H](O)CN(S(=O)(=O)c2ccc(OCc3ccc(F)cc3Cl)cc2)[C@H]1C(=O)NO | 200 to 1000 | < 10 | < 10 | 10000 to 20000
19 | Cc1cc(F)ccc1COc1ccc(S(=O)(=O)N2CC(=O)N[C@@H](C)[C@@H]2C(=O)NO)cc1 | > 1000 | 10 to 20 | < 10 | < 10000
20 | Cc1ccccc1COc1ccc(S(=O)(=O)N2CCC[C@](C)(O)[C@@H]2C(=O)NO)cc1 | 200 to 1000 | < 10 | 10 to 20 | < 10000
21 | CNC(=O)N1CCN(S(=O)(=O)c2ccc(OCc3ccc(F)cc3F)cc2)[C@@H](C(=O)NO)[C@@H]1C | 200 to 1000 | < 10 | 10 to 20 | 10000 to 20000
22 | CC1(C)C[C@@H](O)CN(S(=O)(=O)c2ccc(OCc3cc(Cl)ccc3F)cc2)[C@H]1C(=O)NO | 200 to 1000 | < 10 | 10 to 20 | 10000 to 20000
23 | CC1(C)C[C@@H](O)CN(S(=O)(=O)c2ccc(OCc3ccc(F)cc3)cc2)[C@H]1C(=O)NO | 20 to 200 | < 10 | < 10 | 10000 to 20000
24 | Cc1ccccc1COc1ccc(S(=O)(=O)N2CCN(C(=O)CN)[C@@H](C)[C@@H]2C(=O)NO)cc1 | > 1000 | 20 to 200 | < 10 | < 10000
25 | Cc1ccc(F)cc1COc1ccc(S(=O)(=O)N2CC(=O)N[C@@H](C)[C@@H]2C(=O)NO)cc1 | > 1000 | 10 to 20 | < 10 | < 10000
26 | CNC(=O)N1CCN(S(=O)(=O)c2ccc(OCc3cc(F)ccc3C)cc2)[C@@H](C(=O)NO)[C@@H]1C | > 1000 | < 10 | < 10 | < 10000
